Experimental data reported in patent publication US6828315B1, “1-Amino triazoloc4,3-a! quinazoline-5-ones and/or -5-thiones inhibiting phosphodiesterase IV” (Warner-Lambert LLC, priority 1999, dated 2004).

Tests used:
[1] = biological target: type 4 phosphodiesterases (PDE4); test: Inhibition of the phosphodiesterase (PDE4), enzymatic preparation from line U937; type: biochemical; settings: PDE4 from cytosolic preparation of human cell line U937
Experimental: The capacity of the formula (I) compounds of the invention to inhibit the cyclic nucleotide phosphodiesterases is evaluated by their Cl50 measurement (necessary concentration to inhibit 50% of enzymatic activity).
The type 4 phosphodiesterases are obtained from a cytosolic preparation extracted from the human origin cellular line U937 according to a method adapted from T. J. Torphy and al., 1992, J.Pharm.Exp. Ther. 263: 1195-1205
The other classes of phosphodiesterases are obtained after partial purification FPLC on Mono Q column. (anion exchange column) according to a method adapted from Lavan B. E., Lakey T., Houslay M. D. Biochemical Pharmacology, 1989, 38(22), 4123-4136., and from Silver P. J and al., 1988, Eur.J. Pharmacol. 150: 85-94, either, from human origin cellular lines for PDE 1 (monocytar line TPH1) and PDE5 (line MCF7 issued from an adenocarcinoma), or from dog aorta for PDE 3, or for the human PDE3A, from gene cloning in insect cells SF21 in baculovirus, according to a method adapted from Luckow, V. A. and al., 1991 in Recombinant DNA Technology&Applications.,eds. Prokop, Bajpai,R. K.&Ho,C. S., pp97-152. The enzymatic activity measurement of the different PDE classes, and in particular the PDE 4, is performed according to a method adapted from W. J. Thompson and al. 1979, Advances in Cyclic Nucleotide Research, Vol. 10: 69-92, ed. G. Brooker and al. Raven Press, NY.
For the Cl50 determination, the enzymatic activity is measured in the presence of inhibitor within concentration margins of 0.1 to 100 μM.
The following table illustrates the PDE4 inhibitory activity from enzymatic preparation obtained from the line U937.

Row | IC50 [1] [nM] | melting point [°C] | SMILES
1 | 53 | 179 | O=c1c2cc(Br)ccc2n2c(N3CCCCCC3)nnc2n1Cc1ccc(Cl)cc1 [Compound 32, 1-(azepan-1-yl)-7-bromo-4-(4-chloro-benzyl)-4H-[1,2,4]triazolo[4,3-a]quinazolin-5-one]
2 | 48 | – | Nc1ccc(Cn2c(=O)c3cc(Br)ccc3n3c(N4CCCC4)nnc23)cc1 [Compound 218, 4-(4-Amino-benzyl)-7-bromo-1-pyrrolidin-1-yl-4H-[1,2,4]triazolo[4,3-a]quinazolin-5-one]
3 | 25 | 200 | O=c1c2cc(Br)ccc2n2c(N3CCCC3)nnc2n1Cc1ccc([N+](=O)[O-])cc1 [Compound 48, 7-Bromo-4-(4-nitro-benzyl)-1-pyrrolidin-1-yl-4H-[1,2,4]triazolo[4,3-a]quinazolin-5-one]
4 | 54 | – | O=c1c2cc(Cl)ccc2n2c(N3CCCCCC3)nnc2n1CC=Cc1ccccc1 [Compound 1, 1-(Azepan-1-yl)-7-chloro-4-(3-phenylallyl)-4H-[1,2,4]triazolo[4,3-a]quinazolin-5-one]
5 | 90 | 166 | O=c1c2cc(Br)ccc2n2c(N3CCCC3)nnc2n1Cc1ccc(F)cc1 [Compound 44, 7-Bromo-4-(4-fluoro-benzyl)-1-pyrrolidin-1-yl-4H-[1,2,4]triazolo[4,3-a]quinazolin-5-one]
6 | 40 | 172 | COc1ccc(Cn2c(=O)c3cc(Cl)ccc3n3c(N4CCCCCC4)nnc23)cc1OC [Compound 20, 1-(azepan-1-yl)-7-chloro-4-(3,4-dimethoxybenzyl)-4H-[1,2,4]triazolo[4,3-a]quinazolin-5-one]
7 | 56 | 190 | N#Cc1ccc(Cn2c(=O)c3cc(Br)ccc3n3c(N4CCCCCC4)nnc23)cc1 [Compound 34, 4-(1-Azepan-1-yl-7-bromo-5-oxo-5H-[1,2,4]triazolo[4,3-a]quinazolin-4-ylmethyl)-benzonitrile]
8 | 190 | 183 | Cc1ccc2c(c1)c(=O)n(Cc1ccccc1)c1nnc(N3CCCCCC3)n21 [Compound 190, 1-Azepan-1-yl-4-benzyl-7-methyl-4H-[1,2,4]triazolo[4,3-a]quinazolin-5-one]
9 | 80 | 166 | O=c1c2cc(Cl)ccc2n2c(N3CCCCCC3)nnc2n1Cc1ccc(Cl)cc1 [Compound 11, 1-(azepan-1-yl)-7-chloro-4-(4-chlorobenzyl)-4H-[1,2,4]triazolo[4,3-a]quinazolin-5-one]
10 | 30 | 105 | O=c1c2cc(Br)ccc2n2c(N3CCCC3)nnc2n1Cc1ccc(Cl)cc1 [Compound 43, 7-Bromo-4-(4-chloro-benzyl)-1-pyrrolidin-1-yl-4H-[1,2,4]triazolo[4,3-a]quinazolin-5-one]

Further lines, the molecule ahead of its results:

Row | SMILES | IC50 [1] [nM] | melting point [°C]
11 | O=c1c2cc(Br)ccc2n2c(N3CCCCC3)nnc2n1CC=Cc1ccccc1 [Compound 76, 1-(piperidin-1-yl)-7-bromo-4-(3-phenylallyl)-4H-[1,2,4]triazolo[4,3-a]quinazolin-5-one] | 70 | –
12 | O=c1c2cc(Br)ccc2n2c(N3CCCC3)nnc2n1Cc1ccccc1 [Compound 164, 4-benzyl-7-bromo-1-(pyrrolidin-1-yl)-4H-[1,2,4]triazolo[4,3-a]-quinazolin-5-one] | 90 | –
13 | CNc1ccc2c(c1)c(=O)n(Cc1ccc(C#N)cc1)c1nnc(N3CCCC3)n21 [Compound 231, 4-(7-Methylamino-5-oxo-1-pyrrolidin-1-yl-5H-[1,2,4]triazolo[4,3-a]quinazolin-4-ylmethyl)-benzonitrile] | 0.27 | 270
14 | COC(=O)Cc1ccc(Cn2c(=O)c3cc(Br)ccc3n3c(N4CCCC4)nnc23)cc1 [Compound 239, [4-(7-Bromo-5-oxo-1-pyrrolidin-1-yl-5H-[1,2,4]triazolo[4,3-a]quinazolin-4-ylmethyl)-phenyl]-acetic acid methyl ester] | 5 | –
15 | COc1ccc(C=CCn2c(=O)c3cc(Br)ccc3n3c(N4CCCC4)nnc23)cc1 [Compound 60, 7-Bromo-4-[3-(4-methoxy-phenyl)-allyl]-1-pyrrolidin-1-yl-4H-[1,2,4]triazolo[4,3-a]quinazolin-5-one] | 50 | 171
16 | Cc1ccc2c(c1)c(=O)n(Cc1ccc(CC(=O)O)cc1)c1nnc(N3CCCC3)n21 [Compound 96, [4-(7-Methyl-5-oxo-1-pyrrolidin-1-yl-5H-[1,2,4]triazolo[4,3-a]quinazolin-4-ylmethyl)-phenyl]-acetic acid] | 58 | 262
17 | CCNc1ccc2c(c1)c(=O)n(Cc1ccccc1)c1nnc(N3CCCC3)n21 [Compound 233, 4-Benzyl-7-ethylamino-1-pyrrolidin-1-yl-4H-[1,2,4]triazolo[4,3-a]quinazolin-5-one] | 180 | 225
18 | O=c1c2cc(Br)ccc2n2c(N3CCCCCC3)nnc2n1C/C=C/c1cccnc1 [Compound 40, 1-Azepan-1-yl-7-bromo-4-((E)-3-pyridin-3-yl-allyl)-4H-[1,2,4]triazolo[4,3-a]quinazolin-5-one] | 14 | 185
19 | Cc1ccc(Cn2c(=O)c3cc(Br)ccc3n3c(N(C)C)nnc23)cc1 [Compound 78, 7-Bromo-1-dimethylamino-4-(4-methyl-benzyl)-4H-[1,2,4]triazolo[4,3-a]quinazolin-5-one] | 38 | 223
20 | O=c1c2cc(Br)ccc2n2c(N3CCCCCC3)nnc2n1CC=Cc1ccncc1 [Compound 41, 1-Azepan-1-yl-7-bromo-4-(3-pyridin-4-yl-allyl)-4H-[1,2,4]triazolo[4,3-a]quinazolin-5-one] | 18 | 216
21 | CNC(=O)Cc1ccc(Cn2c(=O)c3cc(Br)ccc3n3c(N4CCCC4)nnc23)cc1 [Compound 240, 2-[4-(7-Bromo-5-oxo-1-pyrrolidin-1-yl-5H-[1,2,4]triazolo[4,3-a]quinazolin-4-ylmethyl)-phenyl]-N-methyl-acetamide] | 13 | –
22 | COc1ccc(Cn2c(=O)c3cc(Br)ccc3n3c(N4CCCC4)nnc23)cc1OC [Compound 52, 7-Bromo-4-(3,4-dimethoxy-benzyl)-1-pyrrolidin-1-yl-4H-[1,2,4]triazolo[4,3-a]quinazolin-5-one] | 30 | 151
23 | CN(C)c1nnc2n(Cc3ccc(CC#N)cc3)c(=O)c3cc(Br)ccc3n12 [Compound 83, [4-(7-Bromo-1-dimethylamino-5-oxo-5H-[1,2,4]triazolo[4,3-a]quinazolin-4-ylmethyl)-phenyl]-acetonitrile] | 12 | 230
24 | O=c1c2cc(I)ccc2n2c(N3CCCC3)nnc2n1Cc1ccccc1 [Compound 189, 4-Benzyl-7-iodo-1-pyrrolidin-1-yl-4H-[1,2,4]triazolo[4,3-a]quinazolin-5-one] | 78 | 184
25 | O=c1c2cc(Br)ccc2n2c(N3CCCC3)nnc2n1CC=Cc1cccnc1 [Compound 61, 7-Bromo-4-(3-pyridin-3-yl-allyl)-1-pyrrolidin-1-yl-4H-[1,2,4]triazolo[4,3-a]quinazolin-5-one] | 11 | 102
26 | O=C(Cc1ccc(Cn2c(=O)c3cc(Br)ccc3n3c(N4CCCC4)nnc23)cc1)NO [Compound 243, 2-[4-(7-Bromo-5-oxo-1-pyrrolidin-1-yl-5H-[1,2,4]triazolo[4,3-a]quinazolin-4-ylmethyl)-phenyl]-N-hydroxy-acetamide] | 28 | 229
27 | COC(=O)c1ccc(Cn2c(=O)c3cc(Br)ccc3n3c(N4CCCC4)nnc23)cc1 [Compound 47, 4-(7-Bromo-5-oxo-1-pyrrolidin-1-yl-5H-[1,2,4]triazolo[4,3-a]quinazolin-4-ylmethyl)-benzoic acid methyl ester] | 50 | 205
28 | Cc1ccc2c(c1)c(=O)n(Cc1ccc(CC(=O)O)cc1)c1nnc(N(C)C)n21 [Compound 102, [4-(1-Dimethylamino-7-methyl-5-oxo-5H-[1,2,4]triazolo[4,3-a]quinazolin-4-ylmethyl)-phenyl]-acetic acid] | 60 | –
29 | O=c1c2cc(Br)ccc2n2c(N3CCCCCC3)nnc2n1CC=Cc1ccccc1 [Compound 37, 1-(azepan-1-yl)-7-bromo-4-(3-phenylallyl)-4H-[1,2,4]triazolo[4,3-a]quinazolin-5-one] | 15 | 155
30 | Nc1ccc2c(c1)c(=O)n(C/C=C/c1ccccc1)c1nnc(N3CCCC3)n21 [Compound 223, 7-Amino-4-((E)-3-phenyl-allyl)-1-pyrrolidin-1-yl-4H-[1,2,4]triazolo[4,3-a]quinazolin-5-one] | 12 | –
31 | CC(C)Nc1ccc2c(c1)c(=O)n(Cc1ccccc1)c1nnc(N3CCCC3)n21 [Compound 234, 4-Benzyl-7-isopropylamino-1-pyrrolidin-1-yl-4H-[1,2,4]triazolo[4,3-a]quinazolin-5-one] | 2690 | –
